Legend:
[1] = system: ticks (Ixodes scapularis); assay: 6 Month PKPD study: efficacy against ticks on beagle dogs; type: in vivo; details: for Geometric mean live ticks (LT): dogs, 25 mg/kg topical on Day 0; for % Reduction live ticks: vs control
Method: (§1) The spiro-azetidine isoxazoline, (S)-1-(5′-(5-(3,5-dichloro-4-fluorophenyl)-5-(trifluoromethyl)-4,5-dihydroisoxazol-3-yl)-3′H-spiro[azetidine-3,1′-isobenzofuran]-1-yl)-2-(methylsulfonyl)ethanone (Compound 1) was used to conduct an in-vivo long-acting efficacy study.
(§2) The study assessed the efficacy of a 25 mg/kg (0.1 mL/kg) topical dose of Compound 1 versus control against fleas (Ctenocephalides felis) and ticks (Ixodes scapularis) on beagle dogs. The formulation was butyl digol:dimethyl isosorbide (90:10 v/v %), selected as it had excellent solubility for Compound 1. Eight male and eight female dogs were acclimated to the testing facility. On Day 0 of the study, each animal received a topical dose of Compound 1 or control (formulation without Compound 1). On Days 56, 89, 117, 145, and 173, animals were artificially infested with about 100 adult unfed fleas. Flea counts were conducted 24 hours post infestation. At each count, all fleas were removed from the dogs. On Days 55, 88, 116, 144, and 172, all dogs were infested with about 50 viable, unfed adult ticks. Tick counts were conducted 48 hours post infestation. At each count, all ticks were removed from the dogs. Further, some hair was removed from the left or right shoulder from three individual dogs from each treatment group 26 days post dose. The hair from each dog was equally divided and placed into two separate 20 mL scintillation vials. Ten female Rhipicephalus sanguineus and ten female Ixodes scapularis ticks were placed in the vials with the hair. Ticks were evaluated for viability at 2-4 hours, 24 hours, 48 hours and 72 hours post vial infestation.

Ixodes scapularis ticks = assay: Tick infested hair samples from treated dogs (contact activity); type: in vivo; details: for # Dead Ticks (mean): hair taken 26 days post dose, ten ticks per vial; for % Reduction: vs control
Method: as §2

[2] = system: Rhipicephalus sanguineus ticks; assay: as above; type: in vivo; details: for # Dead Ticks (mean): hair taken 26 days post dose, ten ticks per vial; for % Reduction: vs control
Method: as §2

[3] = Franz diffusion cell screening (FDCS), flux and Kp; type: in vitro ADME, canine
Method: FDCS yields flux rates and permeation constants for the formulations through a fixed membrane (e.g., canine-, feline-, and bovine-skin).
Canine skin, stored at −20° C. for a maximum of 1 year, was thawed, trimmed, and dermatomed to give a thin layer of skin about 0.8-1.5 mm in thickness. The skin was mounted onto the Franz diffusion cell and equilibrated with the receptor media, 50:50 v/v % EtOH:Milli-Q water, for 2 to 4 hours. The receptor media was selected to provide sink conditions for Compound 1. Once equilibrated, test formulations were applied to the donor side, generally 50 μL/cm^2. Samples were generally obtained at 12, 24, 30, 36, 42, and 48 hours, but can be obtained at any six timepoints out to 72 hours. A control vehicle of with Compound 1 (250 mg/mL) in butyl digol:dimethyl isosorbide (90:10 v/v %) was included in every FDCS study.
Post experiment samples were stored at 4° C. until analysed for Compound 1 concentration by LCMS. Cumulative amount of Compound 1 in ng/cm^2 was calculated and plotted versus time. The gradient of straight line portion of the graph yields the flux value (ng/cm^2/hr) for a given formulation, FIG. 1. The flux can be divided by the applied concentration of Compound 1 to yield the permeability constant Kp (cm/hr)—often converted to a log 10 scale.

[4] = Solubility of Compound 1 in the formulation; type: physicochemical; details: butyl digol:dimethyl isosorbide (90:10 v/v %)
Method: as §2

[5] = system: fleas (Ctenocephalides felis); assay: 6 Month PKPD study: efficacy against fleas on beagle dogs; type: in vivo; details: for Geometric mean live fleas (LF): dogs, 25 mg/kg topical on Day 0; for % Reduction live fleas: vs control
Method: as §1, §2

[6] = 25 mg/kg topical, butyl digol and dimethyl isosorbide, for 5 months

CS(=O)(=O)CC(=O)N1CC2(C1)OCc1cc(C3=NO[C@@](c4cc(Cl)c(F)c(Cl)c4)(C(F)(F)F)C3)ccc12 [Compound 1, (S)-1-(5′-(5-(3,5-dichloro-4-fluorophenyl)-5-(trifluoromethyl)-4,5-dihydroisoxazol-3-yl)-3′H-spiro[azetidine-3,1′-isobenzofuran]-1-yl)-2-(methylsulfonyl)ethanone]
control of ticks (reduction in geometric mean counts vs placebo) [1, 6]: > 95% | Geometric mean live ticks (LT) ([1]; 57 days): 0.0 | Geometric mean live ticks (LT) ([1]; 90 days): 0.0 | Geometric mean live ticks (LT) ([1]; 118 days): 0.1 | Geometric mean live ticks (LT) ([1]; 146 days): 0.3 | Geometric mean live ticks (LT) ([1]; 174 days): 4.5 | % Reduction live ticks ([1]; 25 mg/kg topical, 57 days): 100% | % Reduction live ticks ([1]; 25 mg/kg topical, 90 days): 100% | % Reduction live ticks ([1]; 25 mg/kg topical, 118 days): 99.1% | % Reduction live ticks ([1]; 25 mg/kg topical, 146 days): 97.3% | % Reduction live ticks ([1]; 25 mg/kg topical, 174 days): 64.3% | duration of contact activity against ticks following the topical dose (Ixodes scapularis ticks; hair samples, I. scapularis and R. sanguineus): at least 26 days | # Dead Ticks (mean) (Ixodes scapularis ticks; 2-4 hours post infestation): 0 | # Dead Ticks (mean) (Ixodes scapularis ticks; 24 hours post infestation): 3.7 | # Dead Ticks (mean) (Ixodes scapularis ticks; 48 hours post infestation): 7.3 | # Dead Ticks (mean) (Ixodes scapularis ticks; 72 hours post infestation): 9.3 | % Reduction (Ixodes scapularis ticks; 2-4 hours post infestation): 0.0% | % Reduction (Ixodes scapularis ticks; 24 hours post infestation): 72.7% | % Reduction (Ixodes scapularis ticks; 48 hours post infestation): 86.4% | % Reduction (Ixodes scapularis ticks; 72 hours post infestation): 85.7% | # Dead Ticks (mean) ([2]; 2-4 hours post infestation): 0 | # Dead Ticks (mean) ([2]; 24 hours post infestation): 9.0 | # Dead Ticks (mean) ([2]; 48 hours post infestation): 9.3 | # Dead Ticks (mean) ([2]; 72 hours post infestation): 9.7 | % Reduction ([2]; 2-4 hours post infestation): 0.0% | % Reduction ([2]; 24 hours post infestation): 100.0% | % Reduction ([2]; 48 hours post infestation): 100.0% | % Reduction ([2]; 72 hours post infestation): 100.0% | flux rates and permeation constants with increasing dimethyl isosorbide (FIG. 3) ([3]; 250 mg/mL, butyl digol:dimethyl isosorbide 90:10, 80:20, 60:40 v/v %): small reduction | flux rates and permeation constants versus oleic acid level (FIG. 4) ([3]; 250 mg/mL, butyl digol:oleic acid 95:5, 90:10, 80:20 v/v %): increase with increasing oleic acid levels | flux versus drug load (FIG. 2) ([3]; 50, 150 and 250 mg/mL in butyl digol:dimethyl isosorbide 90:10 v/v %): increased drug load correlates to increased flux | solubility for Compound 1 [4]: excellent | control of fleas (reduction in geometric mean counts vs placebo) [5, 6]: > 95% | Geometric mean live fleas (LF) ([5]; 57 days): 0.2 | Geometric mean live fleas (LF) ([5]; 90 days): 0.0 | Geometric mean live fleas (LF) ([5]; 118 days): 0.9 | Geometric mean live fleas (LF) ([5]; 146 days): 0.8 | Geometric mean live fleas (LF) ([5]; 174 days): 13 | % Reduction live fleas ([5]; 25 mg/kg topical, 57 days): 98.6% | % Reduction live fleas ([5]; 25 mg/kg topical, 90 days): 100% | % Reduction live fleas ([5]; 25 mg/kg topical, 118 days): 98.6% | % Reduction live fleas ([5]; 25 mg/kg topical, 146 days): 98.3% | % Reduction live fleas ([5]; 25 mg/kg topical, 174 days): 74.3%

— patent publication US20160081986A1, “LONG-ACTING SPIRO-ISOXAZOLINE ANTIPARASITIC COMPOSITIONS” (priority 2013, published 2016)
